Legend:
Test in all cases: relative viability (nuclei count vs DMSO), 5 days (fraction); higher = more cells survive
[1] = compound: C[C@@H](Oc1cc(-c2cnn(C3CCNCC3)c2)cnc1N)c1c(Cl)ccc(F)c1Cl [Crizotinib] + CC(=O)c1c(C)c2cnc(Nc3ccc(N4CCNCC4)cn3)nc2n(C2CCCC2)c1=O [Palbociclib] (partner 0.5 µM)
In short: (§1)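 Relative viability equals treated-well nuclei counts divided by vehicle-well nuclei counts. Counts came from 4× images of lung cancer cell lines grown in 1536-well plates for 5 days after pin-tool dosing on the day after seeding. Dosing used one drug alone or a fixed anchor-drug dose plus five library-drug doses (not always all listed) in √10 steps, and values are medians of duplicate plates.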

[2] = compound: CC(C)C[C@H](NC(=O)[C@H](CCc1ccccc1)NC(=O)CN1CCOCC1)C(=O)N[C@@H](Cc1ccccc1)C(=O)N[C@@H](CC(C)C)C(=O)[C@@]1(C)CO1 [Carfilzomib] + CCNC(=O)c1noc(-c2cc(C(C)C)c(O)cc2O)c1-c1ccc(CN2CCOCC2)cc1 [Luminespib] (partner 0.01 µM)
In short: as §1

[3] = compound: C[C@@H](Oc1cc(-c2cnn(C3CCNCC3)c2)cnc1N)c1c(Cl)ccc(F)c1Cl [Crizotinib] + Nc1ncn([C@H]2C[C@H](O)[C@@H](CO)O2)c(=O)n1 [Decitabine] (partner 2 µM)
In short: as §1

[4] = compound: CC(C)C[C@H](NC(=O)[C@H](CCc1ccccc1)NC(=O)CN1CCOCC1)C(=O)N[C@@H](Cc1ccccc1)C(=O)N[C@@H](CC(C)C)C(=O)[C@@]1(C)CO1 [Carfilzomib] + C[C@]1(O)C[C@@H](c2nc(-c3ccc4ccc(-c5ccccc5)nc4c3)c3c(N)nccn32)C1 [Linsitinib] (partner 1 µM)
In short: as §1

Cell Line | relative viability ([1]; first compound 0.01 µM) | relative viability ([1]; first compound 0.03162 µM) | relative viability ([1]; first compound 0.1 µM) | relative viability ([1]; first compound 0.3162 µM) | relative viability ([1]; first compound 1 µM) | relative viability ([2]; first compound 0.001 µM) | relative viability ([2]; first compound 0.003162 µM) | relative viability ([2]; first compound 0.01 µM) | relative viability ([2]; first compound 0.03162 µM) | relative viability ([2]; first compound 0.1 µM) | relative viability ([3]; first compound 0.01 µM) | relative viability ([3]; first compound 0.03162 µM) | relative viability ([3]; first compound 0.1 µM) | relative viability ([3]; first compound 0.3162 µM) | relative viability ([3]; first compound 1 µM) | relative viability ([4]; first compound 0.001 µM) | relative viability ([4]; first compound 0.003162 µM) | relative viability ([4]; first compound 0.01 µM) | relative viability ([4]; first compound 0.03162 µM) | relative viability ([4]; first compound 0.1 µM)
LXF-289 | 0.583 | 0.591 | 0.626 | 0.569 | 0.582 | 0.654 | 0.761 | 0.552 | 0.515 | 0.0761 | 0.325 | 0.394 | 0.402 | 0.344 | 0.398 | 1 | 1.03 | 0.982 | 0.097 | 0.083
NCI-H23 | 0.343 | 0.504 | 0.53 | – | 0.536 | 0.211 | 0.201 | 0.201 | 0.188 | 0.184 | 0.296 | 0.272 | 0.331 | – | 0.308 | 0.537 | 0.708 | 0.567 | 0.206 | 0.12
NCI-H322M | – | 0.486 | 0.465 | 0.53 | 0.447 | 0.719 | 0.951 | 0.849 | 0.713 | 0.291 | – | 0.713 | 0.687 | 0.721 | 0.713 | 0.806 | 0.929 | 0.913 | 0.99 | 0.489
NCI-H358 | 0.127 | 0.14 | 0.184 | 0.127 | 0.126 | 0.295 | 0.456 | 0.378 | 0.281 | 0.118 | 0.184 | 0.215 | 0.2 | 0.241 | 0.214 | 0.793 | 0.977 | 0.717 | 0.15 | 0.16
NCI-H441 | 0.207 | 0.267 | 0.212 | 0.188 | 0.2 | 0.303 | 0.308 | 0.318 | 0.208 | 0.173 | 0.242 | 0.238 | 0.248 | 0.23 | 0.244 | 0.569 | 0.451 | 0.233 | 0.104 | 0.115
NCI-H460 | 0.213 | 0.194 | 0.175 | 0.166 | 0.177 | 0.0383 | 0.0252 | 0.0369 | 0.0311 | 0.0158 | 0.451 | 0.511 | 0.476 | 0.645 | 0.452 | 0.759 | 0.891 | 0.719 | 0.0155 | 0.0133
NCI-H520 | 0.24 | 0.24 | 0.205 | 0.204 | 0.195 | 0.231 | 0.227 | 0.18 | 0.22 | 0.247 | 0.474 | 0.47 | 0.496 | 0.533 | 0.482 | 1.01 | 1.09 | 0.667 | 0.152 | 0.151
NCI-H647 | 0.358 | 0.421 | 0.368 | 0.404 | 0.526 | 0.203 | 0.143 | 0.2 | 0.0957 | 0.0461 | 0.396 | 0.382 | 0.262 | 0.508 | 0.448 | 0.942 | 1.16 | 0.761 | 0.0416 | 0.0315
NCI-H650 | 0.346 | 0.32 | 0.352 | – | 0.375 | – | 0.866 | 0.636 | 0.746 | 0.182 | 0.332 | 0.291 | 0.323 | – | 0.343 | 0.389 | 1.19 | 0.958 | 0.27 | 0.176
NCI-H661 | 0.376 | 0.425 | 0.44 | 0.435 | 0.423 | 0.93 | 0.967 | 0.933 | 0.866 | 0.291 | 0.546 | 0.533 | 0.531 | 0.594 | 0.569 | 0.501 | 0.851 | 0.552 | 0.424 | 0.171
NCI-H727 | 0.703 | 0.621 | 0.655 | 0.639 | 0.595 | 0.32 | 0.436 | 0.294 | 0.498 | 0.201 | 0.763 | 0.769 | 0.836 | 0.763 | 0.796 | 0.406 | 0.249 | 0.301 | 0.431 | 0.117
NCI-H838 | 0.178 | 0.248 | 0.225 | 0.239 | 0.236 | 0.27 | 0.255 | 0.301 | 0.19 | 0.13 | 0.433 | 0.473 | 0.473 | 0.483 | 0.474 | 1.02 | 1.02 | 1.05 | 0.676 | 0.116
NCI-H1355 | 0.415 | 0.378 | 0.387 | 0.406 | 0.406 | 0.723 | 0.791 | 0.731 | 0.606 | 0.238 | 0.348 | 0.344 | 0.392 | 0.338 | 0.346 | 0.795 | 0.915 | 0.794 | 0.487 | 0.14
NCI-H1395 | 0.608 | 0.593 | 0.625 | 0.596 | 0.643 | 0.594 | 0.783 | 0.66 | 0.561 | 0.309 | 0.661 | 0.688 | 0.743 | 0.791 | 0.732 | 1.28 | 1.16 | 0.795 | 1.4 | 0.307
NCI-H1437 | 0.283 | 0.328 | 0.302 | 0.309 | 0.356 | 1.08 | 1.24 | 1.11 | 0.94 | 0.249 | 0.547 | 0.551 | 0.613 | 0.61 | 0.578 | 0.965 | 1.08 | 0.984 | 0.388 | 0.117
NCI-H1651 | 0.507 | 0.544 | 0.505 | 0.534 | 0.529 | 0.766 | 0.913 | 0.916 | 0.2 | 0.12 | 0.592 | 0.407 | 0.63 | 0.326 | 0.591 | 0.982 | 0.965 | 0.487 | 0.0962 | 0.0748
NCI-H1666 | 0.678 | 0.685 | 0.712 | 0.625 | 0.623 | 0.993 | 1.06 | 1.11 | 0.863 | 0.358 | 0.744 | 0.651 | 0.715 | 0.712 | 0.673 | 0.844 | 0.796 | 0.79 | 0.545 | 0.24
NCI-H1734 | 0.346 | 0.327 | 0.327 | – | 0.341 | 0.188 | 0.177 | 0.235 | 0.184 | 0.107 | 0.466 | 0.5 | 0.493 | – | 0.493 | 0.871 | 0.986 | 0.855 | 0.715 | 0.205
NCI-H1755 | 0.465 | 0.445 | 0.445 | 0.457 | 0.451 | 0.54 | 0.367 | 0.481 | 0.288 | 0.453 | 0.639 | 0.713 | 0.755 | 0.694 | 0.661 | 0.984 | 0.986 | 0.982 | 0.97 | 0.218
NCI-H1792 | 0.588 | 0.692 | 0.639 | – | 0.68 | 0.425 | 0.423 | 0.482 | 0.456 | 0.356 | 0.563 | 0.51 | 0.523 | – | 0.514 | 0.492 | 0.632 | 0.365 | 0.633 | 0.339
NCI-H1915 | 0.517 | 0.525 | 0.488 | 0.51 | 0.476 | 0.698 | 0.781 | 0.766 | 0.375 | 0.0837 | 0.229 | 0.256 | 0.261 | 0.258 | 0.26 | 1.1 | 1.1 | 1.05 | 0.655 | 0.106
NCI-H1944 | 0.284 | 0.315 | 0.307 | 0.345 | 0.344 | 0.698 | 0.774 | 0.707 | 0.732 | 0.205 | 0.387 | 0.412 | 0.463 | 0.409 | 0.45 | 1.14 | 1.24 | 1.17 | 1.2 | 0.489
NCI-H1975 | 0.594 | 0.792 | 0.554 | 0.475 | 0.493 | 0.2 | 0.185 | 0.261 | 0.167 | 0.16 | 0.404 | 0.322 | 0.466 | 0.31 | 0.39 | 0.885 | 0.896 | 0.562 | 0.129 | 0.132
NCI-H1993 | 0.641 | 0.67 | 0.666 | 0.535 | 0.426 | 0.9 | 0.932 | 0.983 | 0.71 | 0.462 | 0.515 | 0.525 | 0.608 | 0.606 | 0.602 | 0.758 | 0.773 | 0.712 | 0.607 | 0.563
NCI-H2009 | 0.185 | 0.208 | 0.249 | 0.189 | 0.193 | 1.1 | 1.06 | 1.03 | 1.08 | 0.121 | 0.382 | 0.372 | 0.348 | 0.387 | 0.392 | 1.24 | 1.28 | 1.22 | 0.494 | 0.0639
NCI-H2023 | 0.356 | 0.308 | 0.353 | 0.229 | 0.236 | 0.81 | 0.795 | 0.626 | 0.362 | 0.0768 | 0.186 | 0.236 | 0.272 | 0.202 | 0.255 | 0.6 | 0.768 | 0.653 | 0.607 | 0.0783
NCI-H2085 | 0.464 | 0.484 | 0.469 | 0.442 | 0.44 | 0.505 | 0.472 | 0.359 | 0.205 | 0.189 | 0.565 | 0.518 | 0.554 | 0.54 | 0.595 | 0.843 | 0.835 | 0.778 | 0.418 | 0.235
